From ChEMBL document CHEMBL5360544, “Design, synthesis, and biological evaluation of diaryl heterocyclic derivatives targeting tubulin polymerization with potent anticancer activities” (Eur J Med Chem, 2023)

Legend:
MDA-MB-231 = assay: Antiproliferative activity against human MDA-MB-231 cells incubated for 48 hrs by CCK-8 assay; format: functional, cell-based; details: MDA-MB-231, 48 h
SW480 = assay: Antiproliferative activity against human SW480 cells incubated for 48 hrs by CCK-8 assay; format: functional, cell-based; details: SW480, 48 h
[1] = Antiproliferative activity against human HEK293T cells incubated for 48 hrs by CCK-8 assay; format: toxicity, cell-based, HEK-293T
HeLa = assay: Antiproliferative activity against human HeLa cells incubated for 48 hrs by CCK-8 assay; format: functional, cell-based
HCT-116 = assay: Antiproliferative activity against human HCT-116 cells incubated for 48 hrs by CCK-8 assay; format: functional, cell-based; details: HCT-116, 48 h
HepG2 = assay: Antiproliferative activity against human HepG2 cells incubated for 48 hrs by CCK-8 assay; format: functional, cell-based; details: HepG2, 48 h

SMILES	IC50 (MDA-MB-231)	IC50 (SW480)	IC50 at 48 h [1]	IC50 (HeLa)	IC50 (HCT-116)	IC50 (HepG2)
COc1ccc(-c2cnc(NC(C)=O)nc2-c2cc(OC)c(OC)c(OC)c2)cc1N	> 64 µM	> 64 µM	> 80 µM	> 64 µM	> 64 µM	> 64 µM
CCOc1cc(-c2cnc(N)nc2-c2cc(OC)c(OC)c(OC)c2)ccc1Cl	–	–	–	–	> 64 µM	–
COc1cc(-c2nc(N)ncc2-c2cnc(N)nc2)cc(OC)c1OC	–	–	–	–	> 64 µM	–
COc1ccc(-c2cnc(N)nc2-c2cc(OC)c(OC)c(OC)c2)cc1	22.4 µM	> 64 µM	> 80 µM	60.5 µM	12.7 µM	29.9 µM
COc1cc(-c2nc(N)ncc2-c2ccc(N)cc2)cc(OC)c1OC	–	–	–	–	38.5 µM	–
COc1cc(-c2nc(N)ncc2-c2ccc(F)cc2)cc(OC)c1OC	–	–	–	–	> 64 µM	–
COc1cc(-c2ccnn2-c2ccc(O)cc2)cc(OC)c1OC	–	–	–	–	> 64 µM	–
COc1cc(-c2ccnn2-c2ccc(S(C)(=O)=O)cc2)cc(OC)c1OC	–	–	–	–	> 64 µM	–
COc1cc(-c2nc(N)ncc2-c2ccc(Cl)cc2)cc(OC)c1OC	–	–	–	–	> 64 µM	–
COc1cc(-c2ccnn2-c2cccc3ccccc23)cc(OC)c1OC	–	–	–	–	> 64 µM	–
COc1cc(-c2ccnn2-c2cccc(N)c2)cc(OC)c1OC	–	–	–	–	> 64 µM	–
COc1cc(-c2ccnn2-c2ccc(Cl)cc2)cc(OC)c1OC	–	–	–	–	> 64 µM	–
COc1ccc(-c2cnc(N)nc2-c2cc(OC)c(OC)c(OC)c2)cc1C=O	–	–	–	–	> 64 µM	–
COc1cc(-c2nc(N)ncc2-c2ccc3c(c2)OCCO3)cc(OC)c1OC	–	–	–	–	> 64 µM	–
COc1cc(-c2cnc(N)nc2-c2cc(OC)c(OC)c(OC)c2)cc(OC)c1OC	–	–	–	–	> 64 µM	–
COc1cc(-c2ccnn2-c2ccc(C(=O)O)cc2)cc(OC)c1OC	–	–	–	–	> 64 µM	–
COc1cc(-c2nc(N)ncc2-c2cn(S(=O)(=O)c3ccccc3)c3ccccc23)cc(OC)c1OC	–	–	–	–	> 64 µM	–
COc1cc(-c2nc(N)ncc2-c2ccccc2C)cc(OC)c1OC	–	–	–	–	> 64 µM	–
COc1cc(-c2ccnn2-c2cccc([N+](=O)[O-])c2)cc(OC)c1OC	–	–	–	–	> 64 µM	–
COc1cc(-c2ccnn2-c2cccnc2)cc(OC)c1OC	–	–	–	–	> 64 µM	–

SMILES	IC50 (MDA-MB-231)	IC50 (SW480)	IC50 at 48 h [1]	IC50 (HeLa)	IC50 (HCT-116)	IC50 (HepG2)
COc1ccc(-c2cnc(N)nc2-c2cc(OC)c(OC)c(OC)c2)cc1[N+](=O)[O-]	–	–	–	–	> 64 µM	–
COc1cc(-c2ccnn2-c2ccc(OCc3ccccc3)cc2)cc(OC)c1OC	–	–	–	–	> 64 µM	–
CNS(=O)(=O)Cc1ccc(-n2nccc2-c2cc(OC)c(OC)c(OC)c2)cc1	–	–	–	–	> 64 µM	–
COc1cc(-c2nc(N)ncc2-c2ccc(C)cc2)cc(OC)c1OC	> 64 µM	39.7 µM	> 80 µM	25.2 µM	> 64 µM	45.8 µM
COc1cc(-c2nc(N)ncc2-c2ccc3cc[nH]c3c2)cc(OC)c1OC	27.1 µM	36.8 µM	> 80 µM	19.3 µM	3.87 µM	1.37 µM
COc1cc(-c2nc(N)ncc2-c2ccc(C)c(C)c2)cc(OC)c1OC	> 64 µM	> 64 µM	> 80 µM	> 64 µM	23.9 µM	15.2 µM
COc1cc(-c2ccnn2-c2ccc([N+](=O)[O-])cc2)cc(OC)c1OC	–	–	–	–	> 64 µM	–
COc1cc(-c2nc(N)ncc2-c2ccc(CO)cc2)cc(OC)c1OC	–	–	–	–	> 64 µM	–
COc1ccc(-c2cnc(N)nc2-c2cc(OC)c(OC)c(OC)c2)cc1F	10.6 µM	58.4 µM	> 80 µM	32.3 µM	13 µM	34.1 µM
COc1ccc(-c2cnc(N)nc2-c2cc(OC)c(OC)c(OC)c2)cc1N	11.6 µM	52.2 µM	> 80 µM	> 64 µM	7.45 µM	17 µM
COc1ccc(-n2nccc2-c2cc(OC)c(OC)c(OC)c2)cc1	–	–	–	–	> 64 µM	–
COc1ccc(-n2nccc2-c2cc(OC)c(OC)c(OC)c2)cn1	–	–	–	–	> 64 µM	–
COc1cc(-c2nc(N)ncc2-c2cccc(C)c2)cc(OC)c1OC	–	–	–	–	> 64 µM	–
COc1cc(-c2nc(N)ncc2-c2ccccc2)cc(OC)c1OC	–	–	–	–	> 64 µM	–
COc1cc(-c2nc(N)ncc2-c2cc3ccccc3s2)cc(OC)c1OC	14.5 µM	5.99 µM	> 80 µM	17.9 µM	4.22 µM	0.25 µM
COc1cc(-c2nc(N)ncc2-c2ccc3c(ccn3C)c2)cc(OC)c1OC	> 64 µM	5.05 µM	> 80 µM	7.54 µM	14.7 µM	30.8 µM
COc1cc(-c2ccnn2-c2nccs2)cc(OC)c1OC	–	–	–	–	> 64 µM	–
COc1cc(-c2ccnn2-c2ccc(C)c(C)c2)cc(OC)c1OC	–	–	–	–	> 64 µM	–
COc1cc(-c2nc(N)ncc2-c2ccc3c(cnn3C)c2)cc(OC)c1OC	–	–	–	–	> 64 µM	–
CCn1c2ccccc2c2cc(-c3cnc(N)nc3-c3cc(OC)c(OC)c(OC)c3)ccc21	4.69 µM	4.32 µM	> 80 µM	11.2 µM	3.04 µM	0.57 µM

SMILES	IC50 (MDA-MB-231)	IC50 (SW480)	IC50 at 48 h [1]	IC50 (HeLa)	IC50 (HCT-116)	IC50 (HepG2)
COc1cc(-c2nc(N)ncc2-c2c[nH]c3ccccc23)cc(OC)c1OC	–	–	–	–	> 64 µM	–
COc1cc(-c2ccnn2-c2ccc(I)cc2)cc(OC)c1OC	8.21 µM	28.2 µM	> 80 µM	23.4 µM	14.7 µM	5.64 µM
COc1cc(-c2nc(N)ncc2-c2ccc(S(C)(=O)=O)cc2)cc(OC)c1OC	–	–	–	–	> 64 µM	–
COC(=O)c1ccc(-n2nccc2-c2cc(OC)c(OC)c(OC)c2)cc1	–	–	–	–	> 64 µM	–
COc1cc(-c2cnc(N)nc2-c2cc(OC)c(OC)c(OC)c2)ccc1O	–	–	–	–	> 64 µM	–
COc1cc(-c2ccnn2-c2ccccc2[N+](=O)[O-])cc(OC)c1OC	–	–	–	–	> 64 µM	–
COC(=O)c1ccc(-c2cnc(N)nc2-c2cc(OC)c(OC)c(OC)c2)cc1	–	–	–	–	> 64 µM	–
COCc1ccc(-c2cnc(N)nc2-c2cc(OC)c(OC)c(OC)c2)cc1	14 µM	> 64 µM	> 80 µM	> 64 µM	16.7 µM	2.04 µM
COc1cc(-c2nc(N)ncc2-c2ccc(SC)cc2)cc(OC)c1OC	> 64 µM	> 64 µM	> 80 µM	37.8 µM	11.8 µM	52.1 µM
COc1ccc(-c2cnc(N)nc2-c2cc(OC)c(OC)c(OC)c2)cc1Cl	–	–	–	–	> 64 µM	–
COc1cc(-c2nc(N)ncc2-c2ccc([N+](=O)[O-])cc2)cc(OC)c1OC	–	–	–	–	> 64 µM	–
COc1cc(-c2ccnn2-c2ccc(Br)cc2)cc(OC)c1OC	–	–	–	–	> 64 µM	–
COc1cccc(-c2cnc(N)nc2-c2cc(OC)c(OC)c(OC)c2)c1	–	–	–	–	> 64 µM	–
COc1cc(-c2ccnn2-c2ccc(C)cc2)cc(OC)c1OC	7.29 µM	37.9 µM	> 80 µM	46.6 µM	17 µM	10.3 µM
COc1cc(-c2ccnn2-c2ccc(CO)cc2)cc(OC)c1OC	–	–	–	–	> 64 µM	–
COc1cc(-c2ccnn2-c2ccc(F)cc2)cc(OC)c1OC	–	–	–	–	> 64 µM	–
COc1cc(-c2ccnn2-c2ccc(C#N)cc2)cc(OC)c1OC	–	–	–	–	> 64 µM	–
COc1cc(-c2ccnn2-c2ccc(S(N)(=O)=O)cc2)cc(OC)c1OC	–	–	–	–	> 64 µM	–
